According to patent US7846956B2, “Malononitrile compound as pesticides” (Sumitomo Chemical Company, Limited, priority 2004, dated 2010):

Columns and labels:
Assay type in all cases: in vivo
Culex pipiens pallens = assay: Experimental Example 5: larvae in treated water, death rate of Culex pipiens pallens; conditions: 24 h, active ingredient concentration 3.5 ppm in water, 20 last-instar larvae, after one day, read-out: death rate of the pest
Protocol: Preparations of the present compounds (1), (2), (4), (5), (6), (8), (9), (11), (12), (13), (14), (15), (16), (17), (18), (19), (21), (22), (23), (24), (25), (26), (27), (31), (33), (34), (35), (36), (37), (38), (39), (40), (42), (43), (47), (48), (50), (52), (53), (54), (62), (64), (65), (66), (67), (68) and (70) obtained according to Formulation Example 5 were diluted with water so that the active ingredient concentration was 500 ppm to prepare experimental pesticidal solutions.
0.7 ml of the experimental pesticidal solution was added to 100 mL of ion-exchanged water (active ingredient concentration: 3.5 ppm). Into the solution, 20 last-instar larvae of Culex pipiens pallens were released. After one day, the surviving number was examined and the death rate of the pest was calculated.

Blattalla germanica = assay: Experimental Example 4: filter paper test with sucrose bait, death rate of Blattalla germanica; conditions: 144 h; 500 ppm active ingredient, 0.7 ml on filter paper; two male imagoes; after 6 days
Protocol: Preparations of the present compounds (2), (4), (5), (6), (8), (9), (11), (12), (13), (15), (17), (18), (19), (21), (24), (25), (26), (27), (35), (36), (37), (38), (40), (41), (42), (47), (50), (52), (54), (62), (64), (65), (66) and (68) obtained according to Formulation Example 5 were diluted with water so that the active ingredient concentration was 500 ppm to prepare experimental pesticidal solutions.
(§1) A filter paper having a diameter of 5.5 cm was spread on the bottom of a polyethylene cup having a diameter of 5.5 cm and 0.7 ml of the experimental pesticidal solution was added dropwise onto the filter paper. As a bait 30 mg of sucrose was uniformly placed on the filter paper. Into the polyethylene cup, two male Blattalla gexmanica images were released and the cup was sealed with a lid. After 6 days, the number of surviving Blattalla germanica was examined and the death rate of the pest was calculated.

Musca domestics = assay: Experimental Example 3: filter paper test with sucrose bait, death rate of Musca domestics; conditions: 500 ppm active ingredient, 0.7 ml on filter paper, 10 female imagoes, after 24 hours, read-out: death rate of the pest
Protocol: Preparations of the present compounds (1), (2), (3), (4), (5), (6), (8), (9), (10), (11), (12), (13), (14), (15), (16), (17), (18), (19), (21), (22), (23), (24), (25), (26), (27), (31), (34), (35), (36), (37), (38), (39), (40), (42), (47), (50), (52), (54), (66), (67) and (68) obtained according to Formulation Example 5 were diluted with water so that the active ingredient concentration was 500 ppm to prepare experimental pesticidal solutions.
as §1, with “10 female Musca domestics imagoes” for “two male Blattalla gexmanica images”, “24 hours,” for “6 days,”, “Musca domestics” for “Blattalla germanica”

Compound: C=CC(c1cc(C(C)(C)O)on1)C(C#N)(C#N)CCC(F)(F)F (stereo not drawn) [present compound (66)]
- pest or weed control at 3.5 ppm (Culex pipiens pallens): ≥ 95%
- pest or weed control at 500 ppm (Blattalla germanica): 100%
- pest or weed control at 500 ppm (Musca domestics): ≥ 90%

Compound: CC(c1cc(C(C)(C)C)on1)C(C#N)(C#N)CCC(F)(F)F (stereo not drawn) [present compound (42)]
- pest or weed control at 3.5 ppm (Culex pipiens pallens): ≥ 95%
- pest or weed control at 500 ppm (Blattalla germanica): 100%
- pest or weed control at 500 ppm (Musca domestics): ≥ 90%

Compound: N#CC(C#N)(CCC(F)(F)F)Cc1cc(C(F)(F)F)on1 [present compound (35)]
- pest or weed control at 3.5 ppm (Culex pipiens pallens): ≥ 95%
- pest or weed control at 500 ppm (Blattalla germanica): 100%
- pest or weed control at 500 ppm (Musca domestics): ≥ 90%

Compound: N#CC(C#N)(CCC(F)(F)F)Cc1cnc(Cl)s1 [present compound (18)]
- pest or weed control at 3.5 ppm (Culex pipiens pallens): ≥ 95%
- pest or weed control at 500 ppm (Blattalla germanica): 100%
- pest or weed control at 500 ppm (Musca domestics): ≥ 90%

Compound: CC(C)(C)c1nsc(CC(C#N)(C#N)CCC(F)(F)F)n1 [present compound (21)]
- pest or weed control at 3.5 ppm (Culex pipiens pallens): ≥ 95%
- pest or weed control at 500 ppm (Blattalla germanica): 100%
- pest or weed control at 500 ppm (Musca domestics): ≥ 90%

Compound: CC(c1cc(C(F)(F)F)on1)C(C#N)(C#N)CCC(F)(F)F (stereo not drawn) [present compound (36)]
- pest or weed control at 3.5 ppm (Culex pipiens pallens): ≥ 95%
- pest or weed control at 500 ppm (Blattalla germanica): 100%
- pest or weed control at 500 ppm (Musca domestics): ≥ 90%

Compound: Cc1nc(CC(C#N)(C#N)CCC(F)(F)F)cs1 [present compound (11)]
- pest or weed control at 3.5 ppm (Culex pipiens pallens): ≥ 95%
- pest or weed control at 500 ppm (Blattalla germanica): 100%
- pest or weed control at 500 ppm (Musca domestics): ≥ 90%

Compound: CC(C)(C)c1nc(CC(C#N)(C#N)CCC(F)(F)F)co1 [present compound (9)]
- pest or weed control at 3.5 ppm (Culex pipiens pallens): ≥ 95%
- pest or weed control at 500 ppm (Blattalla germanica): 100%
- pest or weed control at 500 ppm (Musca domestics): ≥ 90%
